Measured values from patent US6767991B1, “Hepatitis C inhibitor peptides” (priority 1997, dated 2004).
Read-outs that look alike come from different tables or passages of the source. *1 amine or outer side, *2 acyl side, *3 side chain or, on linkers, in order; H or OH if unused. Where a SMILES comes first, the peptide text is derived from it. Where no end group is shown, it is not given here. [ ]: non-standard residue; d: D form. The star is where a group is joined. Acca(2-Et,1R,2R) = CC[C@@H]1C[C@]1(N)C(=O)O; CH2(1-naphthyl) = c1ccc2c(C*)cccc2c1; mXylylene = c1cc(C[*:1])cc(C[*:2])c1; oXylylene = c1ccc(C[*:2])c(C[*:1])c1; Hyp = O=C(O)[C@@H]1C[C@@H](O)CN1; Chg = N[C@H](C(=O)O)C1CCCCC1; Tle = CC(C)(C)[C@H](N)C(=O)O; Pip = O=C(O)[C@@H]1CCCCN1; Nva = CCC[C@H](N)C(=O)O; Abu = CC[C@H](N)C(=O)O; Ac3c = NC1(C(=O)O)CC1; Meb = Cc1ccc(C*)cc1

Columns and labels:
[1] = target: T1, recombinant HCV NS3 protease type 1b (Hepatitis C virus genotype 1b, UniProt P26663); test: Recombinant HCV NS3 protease radiometric assay; type: biochemical, HCV genotype 1b
T1 construct: recombinant HCV NS3 protease (amino acid 1027 to 1206) was cloned in the pET11d bacterial expression vector; made in house; host or cells: E. coli BL21(DE3)pLysS
Text: Cloning, Expression and Purification of the Recombinant HCV NS3 Protease type 1b.
Serum from an HCV-infected patient was obtained through an external collaboration (Bernard Willems MD, Hôpital St-Luc. Montréal. Canada and Dr. Donald Murphy, Laboratoire de Santé Publique du Québec, Ste-Anne de Bellevue, Canada). An engineered full-length cDNA template of the HCV genome was constructed from DNA fragments obtained by reverse transcription-PCR (RT-PCR) of serum RNA and using specific primers selected on the basis of homology between other genotype 1b strains. From the determination of the entire genomic sequence, a genotype 1b was assigned to the HCV isolate according to the classification of Simmonds et al. (J. Clin. Microbiol., (1993), 31, p.1493-1503). […] A DNA fragment encoding the polyprotein precursor (NS3/NS4A/NS4B/NS5A/NS5B) was generated by PCR and introduced into eukaryotic expression vectors. […] The mature NS3 protein was not observed with expression of a polyprotein precursor containing the mutation S1165A, which inactivates the NS3 protease, confirming the functionality of the HCV NS3 protease.
The DNA fragment encoding the recombinant HCV NS3 protease (amino acid 1027 to 1206) was cloned in the pET11d bacterial expression vector. The NS3 protease expression in E. coli BL21(DE3)pLysS was induced by incubation with 1 mM IPTG for 3 h at 22° C. A typical fermentation (18 L) yielded approximately 100 g of wet cell paste. The cells were resuspended in lysis buffer (3.0 mL/g) consisting of 25 mM sodium phosphate, pH 7.5, 10% glycerol (v/v), 1 mM EDTA, 0.01% NP-40 and stored at −80° C. Cells were thawed and homogenized following the addition of 5 mM DTT. Magnesium chloride and DNase were then added to the homogenate at final concentrations of 20 mM and 20 μg/mL respectively. After a 25 min incubation at 4° C., the homogenate was sonicated and centrifuged at 15000×g for 30 min at 4° C. The pH of the supernatant was then adjusted to 6.5 using a 1 M sodium phosphate solution.
An additional gel filtration chromatography step was added to the 2 step purification procedure described in WO 95/22985 (incorporated herein by reference). Briefly, the supernatant from the bacterial extract was loaded on a SP HiTrap column (Pharmacia) previously equilibrated at a flow rate of 2 mL/min in buffer A (50 mM sodium phosphate. pH 6.5, […], 1 mM EDTA, 5 mM DTT, 0.01% NP-40). The column was then washed with buffer A containing 0.15 M NaCl and the protease eluted by applying 10 column volumes of a linear 0.15 to 0.3 M NaCl gradient. NS3 protease-containing fractions were pooled and diluted to a final NaCl concentration of 0.1 M. The enzyme was further purified on a HiTrap Heparin column (Pharmacia) equilibrated in buffer B (25 mM sodium phosphate, pH 7.5, 10% glycerol, 5 mM DTT, 0.01% NP-40). The sample was loaded at a flow rate of 3 mL/min. The column was then washed with buffer B containing 0.15 M NaCl at a flow rate of 1.5 mL/min. Two step washes were performed in the presence of buffer B containing 0.3 or 1 M NaCl. The protease was recovered in the 0.3M NaCl wash, diluted 3-fold with buffer B, reapplied on the HiTrap Heparin column and eluted with buffer B containing 0.4 M NaCl. Finally, the NS3 protease-containing fractions were applied on a Superdex 75 HiLoad 16/60 column (Pharmacia) equilibrated in buffer B containing 0.3 M NaCl. The purity of the HCV NS3 protease obtained from the pooled tractions was judged to be greater than 95% by SDS-PAGE followed by densitometry analysis.
The enzyme was stored at −80° C. and was thawed on ice and diluted just prior to use.
Recombinant HCV NS3 Protease Radiometric Assay
The substrate used for the HCV NS3 protease radiometric assay, DDIVPC-SMSYTW [SEQ. ID NO. 2], is cleaved between the cysteine and the serine residues by the enzyme. The sequence DDIVPC-SMSYTW [SEQ. ID NO. 2] corresponds to the NS5A/NS5B natural cleavage site in which the cysteine residue in P2 has been substituted for a proline. […]

[2] = target: T2, HCV NS3 protease type 1b/NS4A cofactor peptide (Hepatitis C virus genotype 1b, UniProt P26663); test: Recombinant HCV NS3 protease/NS4A cofactor peptide radiometric assay; type: biochemical, HCV genotype 1b
T2 construct: recombinant HCV NS3 protease (amino acid 1027 to 1206) was cloned in the pET11d bacterial expression vector; made in house; host or cells: E. coli BL21(DE3)pLysS
Description: Recombinant HCV NS3 Protease/NS4A Cofactor Peptide Radiometric Assay.
The enzyme was stored at −80° C., thawed on ice and diluted just prior to use in the assay buffer containing the NS4A cofactor peptide.
The substrate used for the NS3 protease/NS4A cofactor peptide radiometric assay, DDIVPC-SMSYTW [SEQ. ID NO. 2], is cleaved between the cysteine and the serine residues by the enzyme. The sequence DDIVPC-SMSYTW [SEQ. ID NO. 2] corresponds to the NS5A/NS5B natural cleavage site in which the cysteine residue in P2 has been substituted for a proline. The peptide substrate DDIVPC-SMSYTW [SEQ. ID NO. […] ID NO. […] [SEQ. ID NO. 5] (molar ratio enzyme: cofactor 1:100) in the absence or presence of inhibitors. The separation of substrate from products is performed by adding avidin-coated agarose beads to the assay mixture followed by filtration. […] ID NO. 4] product found in the filtrate allows for the calculation of the percentage of substrate conversion and of the percentage of inhibition.
Tris and Tris-HCl (UltraPure) were obtained from Gibco-BRL. Glycerol (UltraPure), MES and BSA were purchased from Sigma. TCEP was obtained from Pierce, DMSO from Aldrich and NaOH from Anachemia.
Assay buffer: 50 mM Tris HCl, pH 7.5, 30% (w/v) glycerol, 1 mg/mL BSA, 1 mM TCEP (TCEP added just prior to use from a 1 M stock solution in water).
Substrate: […] [SEQ. ID NO.
ID NO. 3] (˜1 nM final concentration).
The assay was performed in a 96-well polypropylene plate from Costar. Each well contained:
20 μL substrate/tracer in assay buffer;
10 μL±inhibitor in 20% DMSO/assay buffer;
10 μL NS3 protease 1b/NS4 cofactor peptide (molar ratio 1:100).
Blank (no inhibitor and no enzyme) and control (no inhibitor) were also prepared on the same assay plate.
The enzymatic reaction was initiated by the addition of the enzyme/NS4A peptide solution and the assay mixture was incubated for 40 min at 23° C. under gentle agitation. Ten (10) μL of 0.5N NaOH were added and 10 μL 1 M MES, pH 5.8 were added to quench the enzymatic reaction.
Twenty (20) μL of avidin-coated agarose beads (purchased from Pierce) were added in a Millipore MADP N65 filtration plate. The quenched assay mixture was transferred to the filtration plate, and incubated for 60 min at 23° C. under gentle agitation.
The plates were filtered using a Millipore MultiScreen Vacuum Manifold Filtration apparatus, and 40 μL of the filtrate was transferred in an opaque 96-well plate containing 60 μL of scintillation fluid per well.
The % inhibition was calculated with the following equation:
100-[(countsinh-countsblank)/(countsctl-countsblank)×100]

human leukocyte elastase = target: T3, human leukocyte elastase (Homo sapiens, UniProt P08246); test: Specificity assay: human leukocyte elastase; type: biochemical
T3 sequence (P08246 30-267): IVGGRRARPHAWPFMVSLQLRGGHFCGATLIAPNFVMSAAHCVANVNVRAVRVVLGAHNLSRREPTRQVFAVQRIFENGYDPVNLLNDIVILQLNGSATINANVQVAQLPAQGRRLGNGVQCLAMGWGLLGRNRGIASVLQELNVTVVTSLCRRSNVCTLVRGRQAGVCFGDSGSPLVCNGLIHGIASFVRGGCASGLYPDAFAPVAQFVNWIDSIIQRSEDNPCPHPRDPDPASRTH
Description: The final conditions for each assay were as follows:
[100 μM Succ-AAPF-pNA [SEQ. ID NO.
The percentage of inhibition was calculated using the formula:
[1-((UVinn-UVblank)/(UVctl-UVblank))]×100

T2 sequence (P26663 1027-1206, other chains not shown): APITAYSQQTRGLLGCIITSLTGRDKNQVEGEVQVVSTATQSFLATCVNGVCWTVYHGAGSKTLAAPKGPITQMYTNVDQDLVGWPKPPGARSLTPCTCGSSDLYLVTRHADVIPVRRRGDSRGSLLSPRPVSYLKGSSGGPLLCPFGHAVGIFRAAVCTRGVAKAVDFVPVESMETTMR
T1 sequence (P26663 1027-1206): as the sequence (P26663 1027-1206, other chains not shown) above

Molecule | IC50 [1] [µM] | further results
CC[C@H](C)[C@H](NC(=O)[C@H](CC(=O)O)NC(=O)[C@H](CC(=O)O)NC(C)=O)C(=O)N[C@H](C(=O)N1CCC[C@H]1C(=O)N[C@@H](CS)C(=O)O)C1CCCCC1 [compound 114] (Ac-DDI[Chg]PC-OH; C-terminus assumed) | 50 | 
CC(=O)N[C@H](C(=O)N[C@H](C(=O)N1C[C@H](OCc2cccc3ccccc23)C[C@H]1C(=O)NC1(C(=O)O)CC1)C(C)C)C1CCCCC1 [compound 227] (Ac-[Chg]V[Hyp](CH2(1-naphthyl))[Ac3c]-OH) |  | IC50 ([2]; Table 2, unmarked values: NS3 protease/NS4A cofactor peptide radiometric assay, read-out: IC50): 3 µM; IC50 (human leukocyte elastase): > 600 µM
Ac-DDIVVC [compound 118] | 133 | 
CCC[C@H](NC(=O)[C@@H]1CCCCN1C(=O)[C@@H](NC(=O)[C@@H](NC(=O)[C@H](CC(=O)O)NC(=O)[C@H](CC(=O)O)NC(C)=O)[C@@H](C)CC)C(C)C)C(=O)O [compound 127] (Ac-DDIV[Pip][Nva]-OH; C-terminus assumed) | 605 | 
Ac-DDLVPC [compound 112] | 92 | 
CCC[C@H](NC(=O)[C@@H]1CCCN1C(=O)[C@@H](NC(=O)[C@@H](NC(=O)[C@@H](NC(=O)[C@H](CC(=O)O)NC(C)=O)C(C)(C)C)[C@@H](C)CC)C(C)C)C(=O)O [compound 129] (Ac-D[Tle]IVP[Nva]-OH; C-terminus assumed) | 270 | 
CC(=O)N[C@@H](CC(=O)O)C(=O)N[C@@H](CC(=O)O)C(=O)N[C@H](C(=O)N[C@H](C(=O)N1CCC[C@H]1C(=O)N[C@@H](CS)C(=O)O)C(C)C)C1CCCCC1 [compound 110] (Ac-DD[Chg]VPC-OH; C-terminus assumed) | 24 | 
CCC[C@H](NC(=O)[C@@H]1C[C@@H](OCc2ccccc2C)CN1C(=O)[C@@H](NC(=O)[C@@H](NC(=O)[C@H](CC(=O)O)NC(=O)[C@H](CC(=O)O)NC(C)=O)[C@@H](C)CC)C(C)C)C(=O)O [compound 204] (Ac-DDIV[Hyp](oXylylene)[Nva]-OH; C-terminus assumed) | 9.4 | 
CCC[C@H](NC(=O)[C@@H]1C[C@@H](OCc2cccc(C)c2)CN1C(=O)[C@@H](NC(=O)[C@@H](NC(=O)[C@H](CC(=O)O)NC(=O)[C@H](CC(=O)O)NC(C)=O)[C@@H](C)CC)C(C)C)C(=O)O [compound 205] (Ac-DDIV[Hyp](mXylylene)[Nva]-OH; C-terminus assumed) | 6.7 | 
Ac-DEIVPC [compound 106] | 16 | 
Ac-DVIVPC [compound 107] | 85 | 
Ac-DDIIPC [compound 113] | 56 | 
CC[C@@H]1C[C@]1(NC(=O)[C@@H]1C[C@@H](OCc2cccc3ccccc23)CN1C(=O)[C@@H](NC(=O)[C@@H](NC(C)=O)C1CCCCC1)C(C)C)C(=O)O [compound 513] |  | fold more potent than the corresponding 1S,2S isomer ([2]; 1R,2R isomer (513) versus 1S,2S isomer (514)): 25 fold; IC50 ([2]; IC50 (μM), Table 5, first line of the cell, NS3 protease/NS4A cofactor peptide radiometric assay (Example 38)): 1.66 µM; IC50 ([2]; text b180, values of Table 5, 1R,2R versus 1S,2S isomer at P1, read-out: IC50): 1.6 µM; IC50 (human leukocyte elastase): > 300 µM
CC[C@H](NC(=O)[C@@H](NC(=O)[C@@H](NC(=O)[C@H](CC(=O)O)NC(=O)[C@H](CC(=O)O)NC(C)=O)[C@@H](C)CC)C(C)C)C(=O)N[C@@H](CS)C(=O)O [compound 115] (Ac-DDIV[Abu]C-OH; C-terminus assumed) | 58 | 
CC[C@@H]1C[C@]1(NC(=O)[C@@H]1C[C@@H](OCc2cccc3ccccc23)CN1C(=O)[C@@H](NC(=O)[C@@H](NC(=O)[C@H](NC(=O)[C@H](CC(=O)O)NC(C)=O)C(C)C)C1CCCCC1)C(C)C)C(=O)O [compound 521] (Ac-D[dV][Chg]V[Hyp](CH2(1-naphthyl))[Acca(2-Et,1R,2R)]-OH) |  | IC50 ([2]; Table 5, first line of the cell, NS3 protease/NS4A cofactor peptide radiometric assay (Example 38), read-out: IC50): 0.024 µM; IC50 (human leukocyte elastase): > 300 µM
CC(=O)N[C@H](C(=O)N[C@H](C(=O)N1C[C@H](Oc2ccc(Br)cc2)C[C@H]1C(=O)NC1(C(=O)O)CC1)C(C)C)C1CCCCC1 [compound 238] |  | IC50 ([2]; IC50, Table 2, unmarked values: NS3 protease/NS4A cofactor peptide radiometric assay): 27 µM; IC50 (human leukocyte elastase; Table 2, human leukocyte elastase, read-out: HLE): 195 µM
Ac-DDVVPC [compound 109] | 80 | 
Ac-DDIVLC [compound 116] | 16 | 
Ac-DDIVFC [compound 117] | 25 | 
CCC[C@H](NC(=O)[C@@H]1C[C@@H](OCc2ccc(C)cc2)CN1C(=O)[C@@H](NC(=O)[C@@H](NC(=O)[C@H](CC(=O)O)NC(=O)[C@H](CC(=O)O)NC(C)=O)[C@@H](C)CC)C(C)C)C(=O)O [compound 206] (Ac-DDIV[Hyp](Meb)[Nva]-OH) | 6.4 | 
Ac-DDIVAC [compound 120] | 76 | 
